Source: patent US6737383B1, “Herbicidal oxadiazolidines” (priority 1999, dated 2004)

Assays:
[1] = system: sugar beet; test: Test B pre/postemergence sugar beet; format: in vivo, Beta vulgaris
In short: (§1)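 Test chemicals in a non-phytotoxic solvent mixture with surfactant were sprayed preemergence onto planted seeds and postemergence onto plants 2 to 18 cm tall (1- to 4-leaf stage). After twelve to sixteen days in a greenhouse, injury was visually rated against untreated controls from 0 (no effect) to 10 (complete control).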

[2] = system: cocklebur; test: Test B pre/postemergence cocklebur; format: in vivo, Xanthium strumarium
In short: as §1

[3] = system: pigweed; test: Test B pre/postemergence pigweed; format: in vivo, Amaranthus retroflexus
In short: as §1

[4] = system: purple nutsedge; test: Test B pre/postemergence purple nutsedge; format: in vivo, Cyperus rotundus
In short: as §1

[5] = system: soybean; test: Test B pre/postemergence soybean; format: in vivo, Glycine max
In short: as §1

[6] = system: velvetleaf; test: Test B pre/postemergence velvetleaf; format: in vivo, Abutilon theophrasti
In short: as §1

[7] = system: duck salad; test: Test B flood test duck salad; format: in vivo, Heteranthera limosa
In short: (§2)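 Plants were grown to the 2-leaf stage before treatment with test chemical, then held in a greenhouse for twelve to sixteen days. Injury was visually rated against untreated controls on a 0–10 scale, where 0 is no effect and 10 is complete control.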

[8] = system: smallflower flatsedge; test: Test B flood test smallflower flatsedge; format: in vivo, Cyperus difformis
In short: as §2

[9] = system: giant foxtail; test: Test B pre/postemergence giant foxtail; format: in vivo, Setaria faberii
In short: as §1

[10] = system: surinam grass; test: Test B pre/postemergence surinam grass; format: in vivo, Brachiaria decumbens
In short: as §1

[11] = system: wild oat; test: Test B pre/postemergence wild oat; format: in vivo, Avena fatua
In short: as §1

[12] = system: rape; test: Test B pre/postemergence rape; format: in vivo, Brassica napus
In short: as §1

[13] = system: rice; test: Test B flood test rice; format: in vivo, Oryza sativa
In short: as §2

[14] = system: bedstraw; test: Test B pre/postemergence bedstraw; format: in vivo, Galium aparine
In short: as §1

[15] = system: wheat; test: Test B pre/postemergence wheat; format: in vivo, Triticum aestivum
In short: as §1

[16] = system: corn; test: Test B pre/postemergence corn; format: in vivo, Zea mays
In short: as §1

[17] = Postemergence, Rate 125 g/ha, scale of 0 to 10 where 0 is no effect and 10 is complete control
[18] = Preemergence, Rate 62 g/ha, scale of 0 to 10 where 0 is no effect and 10 is complete control
[19] = Preemergence, Rate 125 g/ha, 0 is no effect, 10 is complete control
[20] = Preemergence, Rate 250 g/ha, scale 0 to 10, 0 is no effect, 10 is complete control
[21] = Preemergence, Rate 500 g/ha, scale 0 to 10 (0 no effect, 10 complete control)
[22] = Rate 62 g/ha, Postemergence, scale of 0 to 10 where 0 is no effect and 10 is complete control
[23] = Rate 250 g/ha, Postemergence, scale 0 to 10, 0 is no effect, 10 is complete control
[24] = Rate 500 g/ha, Postemergence, scale 0 to 10
[25] = Postemergence (flood test species), Rate 125 g/ha, scale of 0 to 10 where 0 is no effect and 10 is complete control
[26] = Rate 62 g/ha, Postemergence section, flood test species, scale of 0 to 10 where 0 is no effect and 10 is complete control
[27] = Rate 250 g/ha, Postemergence (flood test), scale 0 to 10, 0 is no effect, 10 is complete control
[28] = Rate 500 g/ha, listed under Postemergence (flood test species), scale 0 to 10

CC(C)N(C(=O)n1oc(=O)n(-c2nc(Cl)sc2Cl)c1=O)c1ccc(F)cc1 [Compound 160]
0: Sugarbeets plant response rating [1, 17] | Sugarbeets plant response rating [1, 18] | Sugarbeets plant response rating (0 to 10 scale) [1, 19] | Sugarbeets plant response rating [1, 20] | Sugarbeets plant response rating [1, 21] | Sugarbeets plant response rating [1, 22] | Plant response rating, Sugarbeets [1, 23] | Sugarbeets plant response rating [1, 24] | Cocklebur plant response rating [2, 17] | Cocklebur plant response rating [2, 18] | Cocklebur plant response rating (0 to 10 scale) [2, 19] | Cocklebur plant response rating [2, 20] | Cocklebur plant response rating [2, 21] | Cocklebur plant response rating [2, 22] | Plant response rating, Cocklebur [2, 23] | Cocklebur plant response rating [2, 24] | Redroot pigweed plant response rating [3, 17] | Redroot pigweed plant response rating [3, 18] | Redroot pigweed plant response rating (0 to 10 scale) [3, 19] | Redroot pigweed plant response rating [3, 20] | Redroot pigweed plant response rating [3, 21] | Redroot pigweed plant response rating [3, 22] | Plant response rating, Redroot pigweed [3, 23] | Redroot pigweed plant response rating [3, 24] | Nutsedge plant response rating [4, 17] | Nutsedge plant response rating [4, 18] | Nutsedge plant response rating (0 to 10 scale) [4, 19] | Nutsedge plant response rating [4, 20] | Nutsedge plant response rating [4, 21] | Nutsedge plant response rating [4, 22] | Plant response rating, Nutsedge [4, 23] | Nutsedge plant response rating [4, 24] | Soybean plant response rating [5, 17] | Soybean plant response rating [5, 18] | Soybean plant response rating (0 to 10 scale) [5, 19] | Soybean plant response rating [5, 20] | Soybean plant response rating [5, 21] | Soybean plant response rating [5, 22] | Plant response rating, Soybean [5, 23] | Soybean plant response rating [5, 24] | Velvetleaf plant response rating [6, 18] | Velvetleaf plant response rating (0 to 10 scale) [6, 19] | Velvetleaf plant response rating [6, 20] | Velvetleaf plant response rating [6, 21] | Plant response rating, Velvetleaf [6, 23] | Velvetleaf plant response rating [6, 24] | Ducksalad plant response rating [7, 25] | Ducksalad plant response rating [7, 26] | Plant response rating, Ducksalad [7, 27] | Ducksalad plant response rating [7, 28] | S. Flatsedge plant response rating [8, 25] | S. Flatsedge plant response rating [8, 26] | Plant response rating, S. Flatsedge [8, 27] | S. Flatsedge plant response rating [8, 28] | Giant foxtail plant response rating [9, 17] | Giant foxtail plant response rating [9, 18] | Giant foxtail plant response rating (0 to 10 scale) [9, 19] | Giant foxtail plant response rating [9, 20] | Giant foxtail plant response rating [9, 21] | Giant foxtail plant response rating [9, 22] | Plant response rating, Giant foxtail [9, 23] | Giant foxtail plant response rating [9, 24] | B. signalgrass plant response rating [10, 17] | B. signalgrass plant response rating [10, 18] | B. signalgrass plant response rating (0 to 10 scale) [10, 19] | B. signalgrass plant response rating [10, 20] | B. signalgrass plant response rating [10, 21] | B. signalgrass plant response rating [10, 22] | Plant response rating, B. signalgrass [10, 23] | B. signalgrass plant response rating ([10]; Rate 500 g/ha, Postemergence, scale 0 to 10, 0 no effect, 10 complete control) | Wild oats plant response rating [11, 18] | Wild oats plant response rating (0 to 10 scale) [11, 19] | Wild oats plant response rating [11, 20] | Wild oats plant response rating [11, 21] | Plant response rating, Wild oats [11, 23] | Wild oats plant response rating [11, 24] | Rape plant response rating [12, 17] | Rape plant response rating [12, 18] | Rape plant response rating (0 to 10 scale) [12, 19] | Rape plant response rating [12, 20] | Rape plant response rating [12, 21] | Rape plant response rating [12, 22] | Plant response rating, Rape [12, 23] | Rape plant response rating [12, 24] | Rice plant response rating [13, 25] | Rice plant response rating [13, 26] | Plant response rating, Rice [13, 27] | Rice plant response rating [13, 28] | Bedstraw plant response rating [14, 17] | Bedstraw plant response rating [14, 18] | Bedstraw plant response rating (0 to 10 scale) [14, 19] | Bedstraw plant response rating [14, 20] | Bedstraw plant response rating [14, 21] | Bedstraw plant response rating [14, 22] | Plant response rating, Bedstraw [14, 23] | Bedstraw plant response rating [14, 24] | Wheat plant response rating [15, 18] | Wheat plant response rating (0 to 10 scale) [15, 19] | Wheat plant response rating [15, 20] | Wheat plant response rating [15, 21] | Plant response rating, Wheat [15, 23] | Wheat plant response rating [15, 24] | Corn plant response rating [16, 17] | Corn plant response rating [16, 18] | Corn plant response rating (0 to 10 scale) [16, 19] | Corn plant response rating [16, 20] | Corn plant response rating [16, 21] | Corn plant response rating [16, 22] | Plant response rating, Corn [16, 23] | Corn plant response rating [16, 24]
